{"source": "patent US20150025139A1", "about": "“INGENOL MEBUTATE IN COMBINATION WITH CRYOTHERAPY FOR THE TREATMENT OF ACTINIC KERATOSIS” (LEO Laboratories Limited, priority 2012, published 2015)", "key": {"[1]": {"experiment": "Phase 3 study: local skin responses (composite LSR score)", "format": "in vivo, human", "procedure": "(§1) For safety, AEs and LSRs will be recorded. Local skin responses will be graded using a scale that was developed by the sponsor and used in the previous clinical studies. This is a defined grading scale to ensure that a clear and systematic assessment of LSRs is performed. The LSR Grading Scale employs a 0 to 4 scoring system for each category to be assessed with photographs and definitions of each grade. The LSR Grading Scale has been published previously.\nThe incidence and grade of LSRs in the LSR safety set will be summarized by treatment arm overall and at each visit by anatomical location. Local skin response grades will be summarized by frequency counts and descriptive statistics by treatment arm and visit for each of the six individual LSRs: erythema, flaking/scaling, crusting, swelling, vesiculation/pustulation, and erosion/ulceration.\nA composite (sum) score will be obtained by summing the six individual LSR scores at each visit. The composite score and change from baseline will be summarized by treatment arm at each visit using descriptive statistics. The first visit at which the highest sum score is attained will be summarized by treatment arm. For those subjects whose LSR sum score increased in intensity from baseline, the first visit at which the LSR returned to the baseline intensity will be presented by treatment arm.\nas §1, with “LSRs were” for “LSRs will be”, “responses were” for “responses will be”, “This was” for “This is”, “grade.” for “grade. The LSR Grading Scale has been published previously.”"}, "[2]": {"experiment": "Phase 3 study: adverse events related to trial medication", "format": "in vivo, human", "details": "face or scalp, week 11 data", "procedure": "as §1\nLocal skin responses will be converted into MedDRA preferred terms applying the following conversions seen below. These adverse events will be reported separately from adverse events recorded on the adverse event form in the CRF.\nas §1, with “LSRs were” for “LSRs will be”, “responses were” for “responses will be”, “This was” for “This is”, “grade.” for “grade. The LSR Grading Scale has been published previously.”\nThe most common adverse effect is application site pain. None of the severe adverse events were related to trial medication. All adverse effects related to trial medication were resolved at week 11."}, "[3]": {"test_system": "actinic keratosis, face and scalp", "details": "earlier Phase 3 studies, cited from earlier work"}, "[4]": {"test_system": "actinic keratosis (AK) lesions on the face or scalp", "format": "in vivo, human", "procedure": "In the context of the present invention partial clearance of AKs are defined as 75% or greater reduction in the number of clinically visible AKs in the selected treatment area from baseline.\nA Phase 3, multi-centre, randomised, two-arm, parallel group, double-blinded, vehicle-controlled, 12-month study is conducted (See FIG. 1). Eligible subjects with 4 to 8 clinically typical, visible and discrete AKs within a contiguous 25 cm^2 treatment area on the face and scalp will be randomised to one of two arms. Treatment Arm A will receive cryotherapy to all visible AKs (4-8 lesions, “baseline lesions”) in the selected treatment area then, after 2-4 weeks healing time, field treatment with ingenol mebutate (PEP005 Gel) 0.015% once daily for 3 consecutive days. Treatment Arm B will receive cryotherapy to all visible AKs (4-8 lesions, “baseline lesions”) in the selected treatment area then, after 3 weeks healing time, field treatment with vehicle gel once daily for 3 consecutive days.\nEligible subjects include male or female, at least 18 years of age, with 4 to 8 clinically typical, visible, and discrete AK lesions within a 25 cm^2 contiguous treatment area on the face or scalp. Exclusion criteria stipulate restrictions for prohibited treatments and procedures prior to study entry. This sample is representative of the population which will be treated for AK.\nA Phase 3, multi-centre, randomised, two-arm, parallel group, double-blinded, vehicle-controlled, 12-month study is being conducted (See FIG. 1). Eligible subjects with 4 to 8 clinically typical, visible and discrete AKs within a contiguous 25 cm^2 treatment area on the face and scalp were randomised to one of two arms. Treatment Arm A received cryotherapy to all visible AKs (4-8 lesions, “baseline lesions”) in the selected treatment area then, after 2-4 weeks healing time, they received field treatment with ingenol mebutate (PEP005 Gel) 0.015% once daily for 3 consecutive days. […]"}}}
{"smiles": "C/C=C(/C)C(=O)O[C@H]1C(C)=C[C@]23C(=O)[C@@H](C=C(CO)[C@@H](O)[C@]12O)[C@H]1[C@@H](C[C@H]3C)C1(C)C", "note": "[ingenol mebutate]", "values": [{"measurement": "composite LSR score at baseline", "setting": "[1]; baseline, before cryosurgery and topical treatment", "result": 2.2}, {"measurement": "mean (SD) composite LSR score at peak", "setting": "[1]; peak at visit 3", "result": "8.5 (4.7)"}, {"measurement": "mean composite LSR score, course after topical treatment", "setting": "[1]; week 5, 2 weeks after topical treatment", "result": "return to a score similar to that of earlier visits"}, {"measurement": "tolerability of treatment after cryosurgery", "setting": "[2]", "result": "well tolerated"}, {"measurement": "sustained clearance", "setting": "[3]; 12 month following treatment", "result": "around 50%"}, {"measurement": "complete field clearance", "setting": "[3]; face and scalp", "result": "37-47%"}, {"measurement": "percentage of patients with complete clearance (no clinically visible AKs)", "setting": "[4]; 72 h", "result": 60.5, "unit": "%"}, {"measurement": "percentage of patients with partial clearance (75% or greater reduction in AKs)", "setting": "[4]; 72 h", "result": 77.8, "unit": "%"}, {"measurement": "Median percent reduction from baseline in AK lesion count", "setting": "[4]; week 11", "result": 100.0, "unit": "%"}]}
